Measurements: patent publication US20180273528A1 (LES LABORATOIRES SERVIER, priority 2015, published 2018)

Experiments:
DYRK1A [1] = biological target: T1, DYRK1A (Homo sapiens, UniProt Q13627); test: Cellular DYRK1 autophosphorylation assay in U2-OS cells; format: cell-based; set-up: full-length, wild-type human DYRK1A (NM_001396) with an HA tag; expressed in transfected cells; host or cells: human U2-OS osteosarcoma cells, transient transfection of a pcDNA3.1 plasmid; details: U2-OS cells transfected with HA-tagged human DYRK1A, 5 hours exposure; read-out: IC50 (μM) P-Ser520-Dyrk1A -Cell assay
Outline: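 U2-OS cells treated with a compound concentration range for 5 h. Phospho-Ser520-DYRK1A measured by western blot densitometry or Mesoscale ELISA. IC50 from dose-response curves; for blots, ratio of phospho-Ser520 to total DYRK1A signal.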

CLK1 = biological target: T2, CLK1 (Homo sapiens, UniProt P49759); test: Kinase TR-FRET assay, CLK1; format: biochemical; details: full-length human kinase, 10 μM ATP
T2 construct: full-length human kinases from Carna Biosciences; purchased Carna Biosciences 04-126
T2 sequence (P49759 1-526 isoform P49759-3): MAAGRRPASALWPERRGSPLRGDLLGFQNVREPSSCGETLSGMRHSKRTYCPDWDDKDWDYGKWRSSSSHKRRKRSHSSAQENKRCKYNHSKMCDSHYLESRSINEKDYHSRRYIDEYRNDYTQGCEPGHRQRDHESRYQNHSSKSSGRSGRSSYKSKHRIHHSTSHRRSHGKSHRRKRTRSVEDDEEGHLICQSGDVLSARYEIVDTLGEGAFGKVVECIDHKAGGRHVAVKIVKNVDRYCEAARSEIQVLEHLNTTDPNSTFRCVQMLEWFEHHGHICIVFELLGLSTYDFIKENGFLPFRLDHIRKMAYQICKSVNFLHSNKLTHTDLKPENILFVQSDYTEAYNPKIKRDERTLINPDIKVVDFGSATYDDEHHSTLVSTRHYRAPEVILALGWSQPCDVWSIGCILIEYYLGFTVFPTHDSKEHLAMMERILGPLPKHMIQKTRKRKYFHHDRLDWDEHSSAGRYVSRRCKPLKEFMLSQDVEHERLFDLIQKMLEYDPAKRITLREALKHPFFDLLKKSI
Protocol: Inhibition of the enzymatic activity of human kinases was evaluated in a Time-Resolved Fluorescence Resonance Energy Transfer (TR-FRET) assay in 384-well reaction plates. […] Test compounds of the invention were added in reaction buffer at a range of concentrations from 0.1 nM to 30 μM. Following addition of EDTA (Sigma E7889, 10 mM) to stop the reaction, Europium-labelled mouse monoclonal antibody recognizing phospho-Thr232 in MBP (Perkin Elmer TRF0201, 1 nM) was added.

[2] = biological target: T3, His-TEV-DYRK1A Kinase domain (aa127-485) (Homo sapiens, UniProt Q13627); test: Kinase ADP assay (ADP Hunter), DYRK1A kinase domain; format: biochemical; details: 20 μM ATP
T3 construct: His-TEV-DYRK1A Kinase domain (aa127-485); His tag (N); TEV protease cleavage site (N)
Outline: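 Compounds incubated 10 min at 30 °C with 20 nM enzyme, 40 μM peptide substrate and 20 μM ATP in pH 7.4 Hepes buffer with 10 mM MgCl2. ADP formed detected by ADP Hunter Plus reagents after 20 min at 30 °C, fluorescence read at 590 nm.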

DYRK1A [3] = biological target: T1, DYRK1A; test: Kinase TR-FRET assay, DYRK1A; format: biochemical; set-up: full-length, wild-type human DYRK1A (NM_001396) with an HA tag; expressed in transfected cells; host or cells: human U2-OS osteosarcoma cells, transient transfection of a pcDNA3.1 plasmid; details: full-length human kinase, 10 μM ATP
Outline: (§1)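 Compounds tested at 0.1 nM to 30 μM in reaction buffer; reaction stopped with 10 mM EDTA. Phosphorylated MBP detected with 1 nM Europium-labelled anti-phospho-Thr232 antibody by TR-FRET.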

DYRK1B = biological target: T4, DYRK1B (Homo sapiens, UniProt Q9Y463); test: Kinase TR-FRET assay, DYRK1B; format: biochemical; details: full-length human kinase, 10 μM ATP
T4 construct: full-length human kinases from Carna Biosciences; purchased Carna Biosciences 04-131
T4 sequence (Q9Y463 whole entry): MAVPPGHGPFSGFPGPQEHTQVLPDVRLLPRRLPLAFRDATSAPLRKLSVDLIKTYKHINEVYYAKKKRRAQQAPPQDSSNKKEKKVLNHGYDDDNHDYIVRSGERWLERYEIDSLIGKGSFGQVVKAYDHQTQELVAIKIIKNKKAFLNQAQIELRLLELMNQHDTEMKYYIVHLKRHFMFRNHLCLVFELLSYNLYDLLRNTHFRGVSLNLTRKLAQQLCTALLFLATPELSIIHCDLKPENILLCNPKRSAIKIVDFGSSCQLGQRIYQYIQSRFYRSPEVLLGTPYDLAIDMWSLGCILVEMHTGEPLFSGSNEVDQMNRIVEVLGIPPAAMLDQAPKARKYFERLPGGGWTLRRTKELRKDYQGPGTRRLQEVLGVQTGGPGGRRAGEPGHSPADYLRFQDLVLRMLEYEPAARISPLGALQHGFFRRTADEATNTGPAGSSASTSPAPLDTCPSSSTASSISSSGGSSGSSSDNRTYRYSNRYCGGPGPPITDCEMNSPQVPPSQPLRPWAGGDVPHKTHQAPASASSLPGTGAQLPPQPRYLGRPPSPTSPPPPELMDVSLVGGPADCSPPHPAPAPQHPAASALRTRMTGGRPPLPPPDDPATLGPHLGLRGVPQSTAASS
Outline: as §1

CDK9 = biological target: T5, CDK9 (Homo sapiens, UniProt P50750); test: Kinase TR-FRET assay, CDK9; format: biochemical; details: full-length human kinase, 10 μM ATP
T5 construct: full-length human kinases from Carna Biosciences; purchased Carna Biosciences 04-110
T5 sequence (P50750 whole entry): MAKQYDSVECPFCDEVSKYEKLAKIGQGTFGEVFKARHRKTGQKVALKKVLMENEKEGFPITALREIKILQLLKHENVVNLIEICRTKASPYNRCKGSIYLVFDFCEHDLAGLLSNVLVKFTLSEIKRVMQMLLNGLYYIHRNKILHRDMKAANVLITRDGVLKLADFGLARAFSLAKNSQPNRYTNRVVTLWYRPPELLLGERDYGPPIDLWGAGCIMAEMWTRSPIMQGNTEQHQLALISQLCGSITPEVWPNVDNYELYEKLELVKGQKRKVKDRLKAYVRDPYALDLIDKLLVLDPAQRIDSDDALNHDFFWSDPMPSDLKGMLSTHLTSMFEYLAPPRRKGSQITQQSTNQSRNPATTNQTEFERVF
T5 sequence (O60563 whole entry partner): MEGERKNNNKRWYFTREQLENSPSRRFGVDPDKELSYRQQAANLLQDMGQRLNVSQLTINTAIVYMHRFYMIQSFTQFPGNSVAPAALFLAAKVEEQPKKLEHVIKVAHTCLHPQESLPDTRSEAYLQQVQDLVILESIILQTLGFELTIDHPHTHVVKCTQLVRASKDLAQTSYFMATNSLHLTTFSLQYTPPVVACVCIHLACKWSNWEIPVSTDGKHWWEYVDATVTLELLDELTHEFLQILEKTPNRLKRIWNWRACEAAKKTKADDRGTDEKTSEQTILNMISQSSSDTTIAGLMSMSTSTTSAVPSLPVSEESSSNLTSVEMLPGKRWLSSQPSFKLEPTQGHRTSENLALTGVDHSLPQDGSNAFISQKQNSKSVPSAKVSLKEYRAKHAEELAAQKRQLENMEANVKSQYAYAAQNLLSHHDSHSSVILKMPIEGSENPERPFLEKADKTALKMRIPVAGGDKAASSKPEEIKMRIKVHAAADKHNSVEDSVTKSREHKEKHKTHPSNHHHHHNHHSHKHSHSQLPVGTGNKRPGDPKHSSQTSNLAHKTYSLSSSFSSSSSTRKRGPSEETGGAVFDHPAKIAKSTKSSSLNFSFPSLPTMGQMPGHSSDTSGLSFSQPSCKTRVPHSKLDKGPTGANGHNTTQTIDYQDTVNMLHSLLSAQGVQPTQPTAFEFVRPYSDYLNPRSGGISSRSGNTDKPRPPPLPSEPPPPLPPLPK
Protocol: Inhibition of the enzymatic activity of human kinases was evaluated in a Time-Resolved Fluorescence Resonance Energy Transfer (TR-FRET) assay in 384-well reaction plates. In this assay, full-length human kinases from Carna Biosciences—DYRK1A (NM_001396, ref. 04-130; 2.0 ng/μl), DYRK1B (NM_004714, ref. 04-131; 1.2 ng/p), CLK1 (NM_001162407, ref. 04-126; 0.7 ng/μl), CDK9 (NM_001261, ref. 04-110; 0.9 ng/μl), or GSK3β (NM_001146156, ref. 04-141; 2.0 ng/μl—were incubated for 40 minutes (DYRK1A and DYRK1B) or 100 minutes (CLK1, CDK9 and GSK3β) at room temperature with ATP (Sigma A2383, 10 μM) and a ULight™-labelled human Myelin Basic Protein (MBP) peptide substrate (Perkin Elmer TRF0109, 100 nM) in a reaction buffer composed of 50 mM HEPES pH7.4, 1 mM EGTA, 10 mM MgCl2, 2 mM DTT and 0.01% Tween20. Test compounds of the invention were added in reaction buffer at a range of concentrations from 0.1 nM to 30 μM. Following addition of EDTA (Sigma E7889, 10 mM) to stop the reaction, Europium-labelled mouse monoclonal antibody recognizing phospho-Thr232 in MBP (Perkin Elmer TRF0201, 1 nM) was added. After one hour, the reaction plates were read using a fluorescence reader (EnVision®, Perkin Elmer) at 620 nm and 665 nm (excitation at 340 nm); when the Europium donor fluorophore is excited by light at 340 nm, an energy transfer (620 nm) to the acceptor occurs, which will then emit light at 665 nm.

IC50 (DYRK1A [1])	IC50 (CLK1)	IC50 [2]	IC50 (DYRK1A [3])	IC50 (DYRK1B)	IC50 (CDK9)	SMILES
0.042 µM	0.02 µM	0.019 µM				Cc1nc2ccc(-c3cc(N)nc(N)c3)nc2n1C[C@@H]1C[C@H]1c1ccccc1 (single isomer, unassigned) [Example 110]
0.226 µM		0.012 µM	0.003 µM	0.003 µM	1.95 µM	Cc1nc2ccc(-c3cc(N)nc(N)c3)nc2n1CCc1ccco1 [Example 19, 4-{3-[2-(furan-2-yl)ethyl]-2-methyl-3H-imidazo[4,5-b]pyridin-5-yl}pyridine-2,6-diamine]
0.057 µM		0.011 µM	0.004 µM	0.011 µM	3.44 µM	Cc1nc2ccc(-c3cc(N)nc(N)c3)nc2n1CCc1ccsc1 [Example 29, 4-{2-methyl-3-[2-(thiophen-3-yl)ethyl]-3H-imidazo[4,5-b]pyridin-5-yl}pyridine-2,6-diamine]
0.08 µM		0.013 µM	0.003 µM	0.013 µM	> 10 µM	Cc1nc2ccc(-c3cc(N)nc(N)c3)nc2n1CCc1ccc(Cl)c(Cl)c1 [Example 58, 4-{3-[2-(3,4-dichlorophenyl)ethyl]-2-methyl-3H-imidazo[4,5-b]pyridin-5-yl}pyridine-2,6-diamine]
0.024 µM		0.008 µM	0.003 µM	0.007 µM	> 10 µM	Cc1ccccc1CCn1c(C)nc2ccc(-c3cc(N)nc(N)c3)nc21 [Example 63, 4-{2-methyl-3-[2-(2-methylphenyl)ethyl]-3H-imidazo[4,5-b]pyridin-5-yl}pyridine-2,6-diamine]
0.068 µM	0.014 µM	0.021 µM				Cc1nc2ccc(-c3cc(N)nc(N)c3)nc2n1CCc1ccccc1C(F)(F)F [Example 79, 4-(2-methyl-3-{2-[2-(trifluoromethyl)phenyl]ethyl}-3H-imidazo[4,5-b]pyridin-5-yl)pyridine-2,6-diamine]
0.094 µM	0.015 µM	0.021 µM				COc1ccccc1CCn1c(C)nc2ccc(-c3cc(N)nc(N)c3)nc21 [Example 81, 4-{3-[2-(2-methoxyphenyl)ethyl]-2-methyl-3H-imidazo[4,5-b]pyridin-5-yl}pyridine-2,6-diamine]
0.129 µM	0.016 µM	0.015 µM				CCOc1cccc(CCn2c(C)nc3ccc(-c4cc(N)nc(N)c4)nc32)c1 [Example 90, 4-{3-[2-(3-ethoxyphenyl)ethyl]-2-methyl-3H-imidazo[4,5-b]pyridin-5-yl}pyridine-2,6-diamine]
0.097 µM	0.021 µM	0.015 µM				Cc1nc2ccc(-c3cc(N)nc(N)c3)nc2n1CC1CC1c1ccccc1 (stereo not drawn) [Example 97, 4-{2-methyl-3-[(2-phenylcyclopropyl)methyl]-3H-imidazo[4,5-b]pyridin-5-yl}pyridine-2,6-diamine]
0.28 µM		0.019 µM	0.006 µM	0.014 µM	3.03 µM	COCCCn1c(C)nc2ccc(-c3cc(N)nc(N)c3)nc21 [Example 150, 4-[3-(3-methoxypropyl)-2-methyl-3H-imidazo[4,5-b]pyridin-5-yl]pyridine-2,6-diamine]
0.22 µM		0.012 µM	0.002 µM	0.007 µM	> 10 µM	COc1cccc(CCn2c(C)nc3ccc(-c4cc(N)nc(N)c4)nc32)c1 [Example 152, 4-{3-[2-(3-methoxyphenyl)ethyl]-2-methyl-3H-imidazo[4,5-b]pyridin-5-yl}pyridine-2,6-diamine]
0.089 µM		0.01 µM	0.006 µM	0.008 µM	0.881 µM	Cc1nc2ccc(-c3cc(N)nc(N)c3)nc2n1CCOc1ccccn1 [Example 217, 4-{2-methyl-3-[2-(pyridin-2-yloxy)ethyl]-3H-imidazo[4,5-b]pyridin-5-yl}pyridine-2,6-diamine]

Continued, compound first:

SMILES	IC50 (DYRK1A [1])	IC50 (CLK1)	IC50 [2]	IC50 (DYRK1A [3])	IC50 (DYRK1B)	IC50 (CDK9)
Cc1nc2ccc(-c3cc(N)nc(N)c3)nc2n1C(C)(C)C [Example 25, 4-(3-tert-butyl-2-methyl-3H-imidazo[4,5-b]pyridin-5-yl)pyridine-2,6-diamine]	0.228 µM		0.01 µM	0.007 µM	0.006 µM	1.84 µM
Cc1nc2ccc(-c3cc(N)nc(N)c3)nc2n1CC(C)C [Example 31, 4-[2-methyl-3-(2-methylpropyl)-3H-imidazo[4,5-b]pyridin-5-yl]pyridine-2,6-diamine]	0.07 µM		0.01 µM	0.009 µM	0.002 µM	1.78 µM
Cc1nc2ccc(-c3cc(N)nc(N)c3)nc2n1CC1CCOC1 (stereo not drawn) [Example 41, 4-[2-methyl-3-(tetrahydrofuran-3-ylmethyl)-3H-imidazo[4,5-b]pyridin-5-yl]pyridine-2,6-diamine]	0.131 µM		0.011 µM	0.029 µM	0.011 µM	2.71 µM
Cc1nc2ccc(-c3cc(N)nc(N)c3)nc2[nH]1 [Example 61, 4-(2-methyl-3H-imidazo[4,5-b]pyridin-5-yl)pyridine-2,6-diamine]	0.155 µM		0.009 µM	0.002 µM	0.004 µM	> 10 µM
Cc1nc2ccc(-c3cc(N)nc(N)c3)nc2n1C1CCSCC1 [Example 66, 4-[2-methyl-3-(tetrahydro-2H-thiopyran-4-yl)-3H-imidazo[4,5-b]pyridin-5-yl]pyridine-2,6-diamine]	0.072 µM		0.009 µM	0.005 µM	0.012 µM	0.365 µM
Cc1nc2ccc(-c3cc(N)nc(N)c3)nc2n1CCC1CCOCC1 [Example 78, 4-{2-methyl-3-[2-(tetrahydro-2H-pyran-4-yl)ethyl]-3H-imidazo[4,5-b]pyridin-5-yl}pyridine-2,6-diamine]	0.133 µM	0.018 µM	0.025 µM			
Cc1nc2ccc(-c3cc(N)nc(N)c3)nc2n1[C@H](C)c1ccnc(F)c1 [Example 149, 4-{3-[(1R)-1-(2-fluoropyridin-4-yl)ethyl]-2-methyl-3H-imidazo[4,5-b]pyridin-5-yl}pyridine-2,6-diamine]	0.33 µM		0.026 µM	0.01 µM	0.004 µM	> 10 µM
CCc1nc2ccc(-c3cc(N)nc(N)c3)nc2n1C1CCCC1 [Example 156, 4-(3-cyclopentyl-2-ethyl-3H-imidazo[4,5-b]pyridin-5-yl)pyridine-2,6-diamine]	0.151 µM		0.017 µM	0.013 µM	0.016 µM	0.554 µM
C=CCn1c(C#N)nc2ccc(-c3cc(N)nc(N)c3)nc21 [Example 225, 5-(2,6-diaminopyridin-4-yl)-3-(prop-2-en-1-yl)-3H-imidazo[4,5-b]pyridine-2-carbonitrile]		0.021 µM	0.012 µM			
